From the NIST ThermoML archive (doi:10.1016/j.jct.2016.04.003)
± gives the expanded uncertainty stated by the source.

Columns and labels:
[1] = refractive index (Na D-line) (dimensionless); conditions: 99 kPa, Liquid, Standard Abbe refractometry
[2] = for surface tension liquid-gas: Drop volume; for viscosity: Capillary tube (Ostwald / Ubbelohde) method
[3] = refractive index (Na D-line) (dimensionless); xn = mol fraction of the nth substance listed; conditions: 99 kPa, Liquid, Standard Abbe refractometry, x2 = 0
[4] = xn = mol fraction of the nth substance listed; conditions: x2 = 0; for surface tension liquid-gas: Drop volume; for viscosity / speed of sound / mass density: 99 kPa, Liquid; for viscosity: Capillary tube (Ostwald / Ubbelohde) method; for speed of sound: Frequency=3 MHz, Sing-around technique in a fixed-path interferometer; for mass density: Vibrating tube method

Compound	refractive index ([1]; 293.15 K)	refractive index ([3]; 293.15 K)	refractive index ([3]; 303.15 K)	refractive index ([3]; 313.15 K)	refractive index ([3]; 323.15 K)	surface tension liquid-gas ([4]; 293.15 K) [mN/m]	viscosity ([4]; 293.15 K) [mPa·s]	surface tension liquid-gas ([4]; 303.15 K) [mN/m]	viscosity ([4]; 303.15 K) [mPa·s]	surface tension liquid-gas ([4]; 313.15 K) [mN/m]	viscosity ([4]; 313.15 K) [mPa·s]	speed of sound ([4]; 313.15 K) [m/s]	surface tension liquid-gas ([4]; 323.15 K) [mN/m]	viscosity ([4]; 323.15 K) [mPa·s]	mass density ([4]; 323.15 K) [kg/m3]	further results
CCCC[n+]1ccccc1.F[B-](F)(F)F [1-butylpyridinium tetrafluoroborate]	1.44719 ± 0.00037															
O [water]	1.33297 ± 0.00031															refractive index ([1]; 303.15 K): 1.33196 ± 0.00031; refractive index ([1]; 313.15 K): 1.33061 ± 0.00031; refractive index ([1]; 323.15 K): 1.32904 ± 0.00031; surface tension liquid-gas ([2]; 293.15 K): 72.7 ± 0.8 mN/m; viscosity ([2]; 293.15 K, 99 kPa, Liquid): 1.002 ± 0.08 mPa·s; surface tension liquid-gas ([2]; 303.15 K): 71.1 ± 0.8 mN/m; viscosity ([2]; 303.15 K, 99 kPa, Liquid): 0.797 ± 0.064 mPa·s; surface tension liquid-gas ([2]; 313.15 K): 69.6 ± 0.7 mN/m; viscosity ([2]; 313.15 K, 99 kPa, Liquid): 0.653 ± 0.052 mPa·s; speed of sound ([2]; 313.15 K, 99 kPa, Liquid, Frequency=3 MHz, Sing-around technique in a fixed-path interferometer): 1529.2 ± 1.2 m/s; surface tension liquid-gas ([2]; 323.15 K): 67.8 ± 0.7 mN/m; viscosity ([2]; 323.15 K, 99 kPa, Liquid): 0.547 ± 0.044 mPa·s; mass density ([2]; 323.15 K, 99 kPa, Liquid, Vibrating tube method): 988.04 ± 1 kg/m3
O [water] + CCCC[n+]1ccccc1.F[B-](F)(F)F		1.33297 ± 0.00031	1.33196 ± 0.00031	1.33061 ± 0.00031	1.32904 ± 0.00031	72.7 ± 0.8	1.002 ± 0.08	71.1 ± 0.8	0.797 ± 0.064	69.6 ± 0.7	0.653 ± 0.052	1529.2 ± 1.2	67.8 ± 0.7	0.547 ± 0.044	988.04 ± 1	
O [water] + CCC[n+]1ccccc1.F[B-](F)(F)F		1.33297 ± 0.00031	1.33196 ± 0.00031	1.33061 ± 0.00031	1.32904 ± 0.00031	72.7 ± 0.8	1.002 ± 0.08	71.1 ± 0.8	0.797 ± 0.064	69.6 ± 0.7	0.653 ± 0.052	1529.2 ± 1.2	67.8 ± 0.7	0.547 ± 0.044	988.04 ± 1	
